Measurements published in PMC10064330, “Reversible Dual-Covalent Molecular Locking of the 14-3-3/ERRγ Protein–Protein Interaction as a Molecular Glue Drug Discovery Approach” (Journal of the American Chemical Society, 2023).

Legend:
14-3-3γ/RND3 complex = molecular target: T1, 14-3-3γ/RND3 complex (Homo sapiens, UniProt P61587+P61981); experiment: FA / TD-FA selectivity screen, RND3 client peptide; format: binding; conditions: 100 μM compound; for effect on RND3 binding to 14-3-3γ over time / effect on 14-3-3γ/RND3 complex at short time lengths: TD-FA
T1 construct: RND3 pS240, PDB 8BFC; made in house; host or cells: E. coli NiCo21 (DE3)
Procedure: (§1) Drugging the hub protein 14-3-3 raises the challenge of selectivity, given that 14-3-3 binds several hundred phosphoprotein partners (Figure 4a).[54] We hypothesized that the interplay of chemical reactivity, the topology, and functionality of the composite binding pocket shaped by 14-3-3 and the interaction partner drives selective stabilization of the 14-3-3/ERRγ complex.[53] To validate selectivity, molecular locks 5 and 10 were tested against a panel of nine 14-3-3 client peptides in an FA assay, and the SF100 was determined for each 14-3-3 PPI (Figure 4b and Figures S18–S20). This client panel contained a diverse representation of 14-3-3 binding proteins, differing for example in size and hydrophobicity of the +1 amino acid. Importantly, clients PKR and RND3, each containing a +1 Cys, were included in the panel.
(§2) To further assess off-target reactivity to +1 Cys-containing peptides, fragment 1, locks 5 and 10 were also screened against PKR and RND3 in the TD-FA assay.
(§3) Figure S20. KD and SF100 plot – selectivity screen. […]
(§4) nine different client peptides in presence of DMSO (negative control) or 100 µM of compound 1, 5 or 10 (based on binding curves in Figure S19). Also a bar plot representation of stabilization factor (SF100) of compounds 1, 5 and 10 for each of these peptides (bottom plot).
(§5) (1 picture or pasted object on this page, not shown here)
(§6) Experimental Section Biophysical Assays
(§7) 14-3-3γ protein expression (FA, TSA, MS assays)
A pPROEX HTb expression vector encoding the human 14-3-3 protein gamma (14-3-3γ) with a N-terminal his6-tag was transformed by heat shock into NiCo21 (DE3) competent cells. Single colonies were cultured in 50 mL LB medium (100 µg/mL ampicillin). After overnight incubation at 37 °C, cultures were transferred to 2 L TB media (100 µg/mL ampicillin, 1 mM MgCl2) and incubated at 37 °C until an OD600 nm of 0.8 -1.2 was reached. Protein expression was then induced with 0.4 mM isopropyl-β-d-thiogalactoside (IPTG), and cultures were incubated overnight at 18 °C. Cells were harvested by centrifugation (8600 rpm, 20 minu tes, 4 °C) and resuspended in lysis buffer (50 mM Hepes, pH 8.0, 300 mM NaCl, 12.5 mM imidazole, 5 mM MgCl2, 2 mM βME) containing cOmplete™ EDTA-free Protease Inhibitor Cocktail tablets (1 tablet/100 ml lysate) and benzonase ( 5 µl/100 ml). After lysis using a C3 Emulsiflex-C3 homogenizer (Avestin), the cell lysate was cleared by centrifugation (20000 rpm, 30 minutes, 4 °C) and purified using Ni2+-affinity chromatography (Ni -NTA superflow cartridges, Qiagen). Typically two 5 mL columns (flow 5 mL/min) were use d for a 2 L culture in which the lysate was loaded on the column , washed with 10 CV wash buffer (50 mM Hepes, pH 8.0, 300 mM NaCl, 25 mM imidazole, 2 mM βME), and eluted in several fractions (2-4 CV) of elution buffer (50 mM Hepes, pH 8.0, 300 mM NaCl, 250 mM imidazole, 2 mM βME). Fractions containing the 14 -3-3 protein were combined and dialyzed into 25 mM HEPES pH 8.0, 100 mM NaCl, 10 mM MgCl2, 500 µM TCEP. Finally, the protein was concentrated to ∼60 mg/mL, analyzed Q-Tof LC/MS, and aliquots were flash-frozen for storage at −80 °C.
14-3-3σΔc C38N protein expression (Crystallography)
A pPROEX HTb expression vector encoding the human 14-3-3 protein sigma truncated after T231 (14-3-3σΔc), mutated C38N, and containing a N-terminal his6-tag was transformed by heat shock into NiCo21 (DE3) competent cells. Single colonies were cultured in 50 mL LB medium (100 µg/mL ampicillin). After overnight incubation at 37 °C, cultures were transferred to 2 L TB media (100 µg/mL ampicillin, 1 mM MgCl2) and incubated at 37 °C until an OD600 nm of 0.8-1.2 was reached. Protein expression was then induced with 0.4 mM isopropyl-β-d-thiogalactoside (IPTG), and cultures were incubated overnight at 18 °C. Cells were harvested by centrifugation (8600 rpm, 20 minutes, 4 °C) and resuspended in lysis buffer (50 mM Hepes, pH 8.0, 300 mM NaCl, 12.5 mM […]

14-3-3γ/PKR complex = molecular target: T2, 14-3-3γ/PKR complex (Homo sapiens, UniProt P61981); experiment: FA / TD-FA selectivity screen, PKR client peptide; format: binding; conditions: 100 μM compound
T2 construct: made in house; host or cells: E. coli NiCo21 (DE3)
T2 sequence (P61981 1-247): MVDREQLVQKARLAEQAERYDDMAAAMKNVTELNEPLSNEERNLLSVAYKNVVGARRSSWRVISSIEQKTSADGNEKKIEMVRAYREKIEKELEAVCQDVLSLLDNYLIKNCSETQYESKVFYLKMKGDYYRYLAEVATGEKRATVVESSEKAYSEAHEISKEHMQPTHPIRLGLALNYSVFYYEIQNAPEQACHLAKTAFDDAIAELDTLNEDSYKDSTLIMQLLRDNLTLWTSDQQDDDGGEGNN
Procedure: as §1, §2, §3, §4, §5, §6, §7
A pPROEX HTb expression vector encoding the human 14-3-3 protein gamma (14-3-3γ) with a N-terminal his6-tag was transformed by heat shock into NiCo21 (DE3) competent cells. Single colonies were cultured in 50 mL LB medium (100 µg/mL ampicillin). After overnight incubation at 37 °C, cultures were transferred to 2 L TB media (100 µg/mL ampicillin, 1 mM MgCl2) and incubated at 37 °C until an OD600 nm of 0.8 -1.2 was reached. […] Finally, the protein was concentrated to ∼60 mg/mL, analyzed Q-Tof LC/MS, and aliquots were flash-frozen for storage at −80 °C. […]

Structure (SMILES) | effect on RND3 binding to 14-3-3γ over time (14-3-3γ/RND3 complex) | effect on 14-3-3γ/RND3 complex at short time lengths (14-3-3γ/RND3 complex) | stabilization of the PKR complex (14-3-3γ/PKR complex) | SF100 (14-3-3γ/RND3 complex; RND3 peptide)
CN(C)CCSSCCN(C)C(=O)c1cccc(F)c1 [compound 1, reference compound] | remains an inhibitor | immediate destabilization | no stabilization | 
CN(C)CCSSCCN(C)C(=O)c1ccc(C=O)c(F)c1 [compound 5] |  | immediate destabilization | no stabilization | 
CN(C)CCSSCCN(C)C(=O)c1cc(Br)cc(C=O)c1 [compound 10] | enhancement in RND3 binding | immediate destabilization | no stabilization | ~7.9
